Experimental findings from patent US8952157B2, “Apoptosis-inducing agents for the treatment of cancer and immune and autoimmune diseases” (AbbVie Inc., priority 2008, dated 2015) are described below.

For the first experiment, the target named is GST-Bcl-2 (Homo sapiens (Human), UniProt P10415). The experiment in a line: Time Resolved-Fluorescence Resonance Energy Transfer (TR-FRET) Bcl-2 binding assay.
Chain of GST-Bcl-2 (P10415 whole entry): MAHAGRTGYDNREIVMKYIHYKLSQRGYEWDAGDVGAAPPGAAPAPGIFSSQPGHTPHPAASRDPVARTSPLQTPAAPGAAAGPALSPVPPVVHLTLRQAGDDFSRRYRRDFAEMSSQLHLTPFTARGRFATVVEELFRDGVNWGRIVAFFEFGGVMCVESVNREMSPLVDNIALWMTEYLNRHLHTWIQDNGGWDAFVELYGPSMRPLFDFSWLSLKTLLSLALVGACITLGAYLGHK
Conditions: not given
The essentials:
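Ki values derived from TR-FRET displacement of F-Bak peptide from GST-Bcl-2, detected with Tb-labelled anti-GST antibody (ex 340, em 520/495 nm). Compound dilution series started at 50 μM (2× starting concentration); room-temperature incubation 3 hours.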
In general terms: In TR-FRET formats the signal depends on donor and acceptor labels being close together.
Consider `CC1(C)CCC(CN2CCN(c3ccc(C(=O)NS(=O)(=O)c4ccc(N[C@H]5CC[C@H](N6CCOCC6)CC5)c([N+](=O)[O-])c4)c(Oc4cnc(N)c(Cl)c4)c3)CC2)=C(c2ccc(Cl)cc2)C1` [Example 324, Trans-2-[(6-amino-5-chloropyridin-3-yl)oxy]-4-(4-{[2-(4-chlorophenyl)-4,4-dimethylcyclohex-1-en-1-yl]methyl}piperazin-1-yl)-N-({4-[(4-morpholin-4-ylcyclohexyl)amino]-3-nitrophenyl}sulfonyl)benzamide], for which the Ki is less than 0.01 nM. The same measure, in the same setting: the same measure for `CC1(C)CC(c2ccc(Cl)cc2)=C(CN2CCN(c3ccc(C(=O)NS(=O)(=O)c4ccc(N[C@H]5CC[C@H](N6CCOCC6)CC5)c([N+](=O)[O-])c4)c(Oc4cc5cc[nH]c5cc4Cl)c3)CC2)CO1` [Example 294, Trans-2-[(6-chloro-1H-indol-5-yl)oxy]-4-(4-{[4-(4-chlorophenyl)-6,6-dimethyl-5,6-dihydro-2H-pyran-3-yl]methyl}piperazin-1-yl)-N-({4-[(4-morpholin-4-ylcyclohexyl)amino]-3-nitrophenyl}sulfonyl)benzamide]: 0.127 nM; for `CC1(C)CCC(CN2CCN(c3ccc(C(=O)NS(=O)(=O)c4ccc(N[C@H]5CC[C@H](N6CCOCC6)CC5)c([N+](=O)[O-])c4)c(Oc4cccc5c4CCNC5=O)c3)CC2)=C(c2ccc(Cl)cc2)C1` [Example 304, Trans-4-(4-{[2-(4-chlorophenyl)-4,4-dimethylcyclohex-1-en-1-yl]methyl}piperazin-1-yl)-N-({4-[(4-morpholin-4-ylcyclohexyl)amino]-3-nitrophenyl}sulfonyl)-2-[(1-oxo-1,2,3,4-tetrahydroisoquinolin-5-yl)oxy]benzamide]: 0.822 nM.

The experiment is the same for the next values; noted with them: GST-Bcl-2 1 nM, F-Bak peptide probe 100 nM, Tb-anti-GST antibody 1 nM; Ki by Wang's equation.
`CC1(C)CCC(CN2CCN(c3ccc(C(=O)NS(=O)(=O)c4ccc(NCC5CCOCC5)c([N+](=O)[O-])c4)c(Oc4cc(N)nc(N)c4)c3)CC2)=C(c2ccc(Cl)cc2)C1` [Example 380, 4-(4-{[2-(4-chlorophenyl)-4,4-dimethylcyclohex-1-en-1-yl]methyl}piperazin-1-yl)-2-[(2,6-diaminopyridin-4-yl)oxy]-N-({3-nitro-4-[(tetrahydro-2H-pyran-4-ylmethyl)amino]phenyl}sulfonyl)benzamide]: affinity was put at a Ki of 8.27 nM. Same read-out and setting: the value for `O=C(NS(=O)(=O)c1ccc(NCC2CCOCC2)c([N+](=O)[O-])c1)c1ccc(N2CCN(Cc3ccccc3-c3ccc(Cl)cc3)CC2)cc1Oc1ccc2[nH]cc(CCCN3CCOCC3)c2c1` [Example 74, 4-(4-((4′-chloro-1,1′-biphenyl-2-yl)methyl)piperazin-1-yl)-2-((3-(3-morpholin-4-ylpropyl)-1H-indol-5-yl)oxy)-N-((3-nitro-4-((tetrahydro-2H-pyran-4-ylmethyl)amino)phenyl)sulfonyl)benzamide] was 189 nM; that for `CC1(C)CCC(CN2CCN(c3ccc(C(=O)NS(=O)(=O)c4ccc(NCC5(N)CCOCC5)c([N+](=O)[O-])c4)c(Oc4cccc(Cl)c4)c3)CC2)=C(c2ccc(Cl)cc2)C1` [Example 109, N-[(4-{[(4-aminotetrahydro-2H-pyran-4-yl)methyl]amino}-3-nitrophenyl)sulfonyl]-2-(3-chlorophenoxy)-4-(4-{[2-(4-chlorophenyl)-4,4-dimethylcyclohex-1-en-1-yl]methyl}piperazin-1-yl)benzamide] was 0.237 nM. The compound `CC(C)(C)OC(=O)Nc1cccc(Oc2cc(N3CCN(Cc4ccccc4-c4ccc(Cl)cc4)CC3)ccc2C(=O)NS(=O)(=O)c2ccc(NCC3CCOCC3)c([N+](=O)[O-])c2)c1` [Example 85, tert-butyl 3-(5-(4-((4′-chloro-1,1′-biphenyl-2-yl)methyl)piperazin-1-yl)-2-((((3-nitro-4-((tetrahydro-2H-pyran-4-ylmethyl)amino)phenyl)sulfonyl)amino)carbonyl)phenoxy)phenylcarbamate] returned an inhibition constant (Ki) of 5.63 nM. Still for that read-out and setting: the same measure for `CC1(C)CCC(CN2CCN(c3ccc(C(=O)NS(=O)(=O)c4ccc(NC5CCN(C6COC6)CC5)c([N+](=O)[O-])c4)c(Oc4cnc(N)c(Cl)c4)c3)CC2)=C(c2ccc(Cl)cc2)C1` [Example 364, 2-[(6-amino-5-chloropyridin-3-yl)oxy]-4-(4-{[2-(4-chlorophenyl)-4,4-dimethylcyclohex-1-en-1-yl]methyl}piperazin-1-yl)-N-({3-nitro-4-[(1-oxetan-3-ylpiperidin-4-yl)amino]phenyl}sulfonyl)benzamide]: 0.014 nM; for `CC1(C)CCC(CN2CCN(c3ccc(C(=O)NS(=O)(=O)c4ccc(OCC5(F)CCOCC5)c(S(=O)(=O)C(F)(F)F)c4)c(Oc4cnc(N)c(Cl)c4)c3)CC2)=C(c2ccc(Cl)cc2)C1` [Example 348, 2-[(6-amino-5-chloropyridin-3-yl)oxy]-4-(4-{[2-(4-chlorophenyl)-4,4-dimethylcyclohex-1-en-1-yl]methyl}piperazin-1-yl)-N-({4-[(4-fluorotetrahydro-2H-pyran-4-yl)methoxy]-3-[(trifluoromethyl)sulfonyl]phenyl}sulfonyl)benzamide]: 3.78 nM; for `O=C(NS(=O)(=O)c1ccc(NCCCN2CCOCC2)c([N+](=O)[O-])c1)c1ccc(N2CCN(Cc3ccccc3-c3ccc(Cl)cc3)CC2)cc1Oc1ccc(-c2ccncc2)cc1` [Example 99, 4-(4-((4′-chloro-1,1′-biphenyl-2-yl)methyl)piperazin-1-yl)-N-((4-((3-morpholin-4-ylpropyl)amino)-3-nitrophenyl)sulfonyl)-2-(4-pyridin-4-ylphenoxy)benzamide]: 71.4 nM. Same read-out and setting: the same measure for `CN1CCC(Nc2ccc(S(=O)(=O)NC(=O)c3ccc(N4CCN(CC5=C(c6ccc(Cl)cc6)CC(C)(C)CC5)CC4)cc3Oc3cccc(C(F)(F)F)c3)cc2[N+](=O)[O-])CC1` [Example 57, 4-(4-((2-(4-chlorophenyl)-4,4-dimethylcyclohex-1-en-1-yl)methyl)piperazin-1-yl)-N-((4-((1-methylpiperidin-4-yl)amino)-3-nitrophenyl)sulfonyl)-2-(3-(trifluoromethyl)phenoxy)benzamide]: 0.147 nM. Same read-out and setting: the same measure for `CC1(C)CCC(CN2CCN(c3ccc(C(=O)NS(=O)(=O)c4ccc(NCC5CCOCC5)c([N+](=O)[O-])c4)c(Oc4cc5cc[nH]c5cc4F)c3)CC2)=C(c2ccc(Cl)cc2)C1` [Example 238, 4-(4-{[2-(4-chlorophenyl)-4,4-dimethylcyclohex-1-en-1-yl]methyl}piperazin-1-yl)-2-[(6-fluoro-1H-indol-5-yl)oxy]-N-({3-nitro-4-[(tetrahydro-2H-pyran-4-ylmethyl)amino]phenyl}sulfonyl)benzamide]: 0.124 nM. Turning to `Cc1cccc(Oc2cc(N3CCN(CC4=C(c5ccc(Cl)cc5)CC(C)(C)CC4)CC3)ccc2C(=O)NS(=O)(=O)c2ccc(NC3CCN(C)CC3)c([N+](=O)[O-])c2)c1` [Example 182, 4-(4-{[2-(4-chlorophenyl)-4,4-dimethylcyclohex-1-en-1-yl]methyl}piperazin-1-yl)-2-(3-methylphenoxy)-N-({4-[(1-methylpiperidin-4-yl)amino]-3-nitrophenyl}sulfonyl)benzamide], the Ki is 0.172 nM. Still for that read-out and setting: the value for `CN1CCC(Nc2ccc(S(=O)(=O)NC(=O)c3ccc(N4CCN(CC5=C(c6ccc(Cl)cc6)CC(C)(C)CC5)CC4)cc3Oc3cccc(O)c3)cc2[N+](=O)[O-])CC1` [Example 176, 4-(4-{[2-(4-chlorophenyl)-4,4-dimethylcyclohex-1-en-1-yl]methyl}piperazin-1-yl)-2-(3-hydroxyphenoxy)-N-({4-[(1-methylpiperidin-4-yl)amino]-3-nitrophenyl}sulfonyl)benzamide] was 0.24 nM. The compound `CN1CCC(Nc2ccc(S(=O)(=O)NC(=O)c3ccc(N4CCN(CC5=C(c6ccc(Cl)cc6)CC(C)(C)CC5)CC4)cc3Oc3cccc(Cl)c3)cc2S(=O)(=O)C(F)(F)F)CC1` [Example 131, 2-(3-chlorophenoxy)-4-(4-{[2-(4-chlorophenyl)-4,4-dimethylcyclohex-1-en-1-yl]methyl}piperazin-1-yl)-N-({4-[(1-methylpiperidin-4-yl)amino]-3-[(trifluoromethyl)sulfonyl]phenyl}sulfonyl)benzamide] returned an inhibitory constant (Ki) of 0.066 nM.

As to `CC1(C)CCC(CN2CCN(c3ccc(C(=O)NS(=O)(=O)c4ccc(NCC5CN(C6CC6)CCO5)c([N+](=O)[O-])c4)c(Oc4cnc(N)c(Cl)c4)c3)CC2)=C(c2ccc(Cl)cc2)C1` (stereo not shown) [Example 369, 2-[(6-amino-5-chloropyridin-3-yl)oxy]-4-(4-{[2-(4-chlorophenyl)-4,4-dimethylcyclohex-1-en-1-yl]methyl}piperazin-1-yl)-N-[(4-{[(4-cyclopropylmorpholin-2-yl)methyl]amino}-3-nitrophenyl)sulfonyl]benzamide], the inhibition constant Ki stood at 0.014 nM. On the same count and under the same terms, the value for `CN1CCN(Nc2ccc(S(=O)(=O)NC(=O)c3ccc(N4CCN(CC5=C(c6ccc(Cl)cc6)CC(C)(C)CC5)CC4)cc3Oc3cccc4c3CC(=O)N4)cc2[N+](=O)[O-])CC1` [Example 287, 4-(4-{[2-(4-chlorophenyl)-4,4-dimethylcyclohex-1-en-1-yl]methyl}piperazin-1-yl)-N-({4-[(4-methylpiperazin-1-yl)amino]-3-nitrophenyl}sulfonyl)-2-[(2-oxo-2,3-dihydro-1H-indol-4-yl)oxy]benzamide] was 0.131 nM; that for `CC1(C)CCC(CN2CCN(c3ccc(C(=O)NS(=O)(=O)c4ccc(OCC5(F)CCOCC5)c([N+](=O)[O-])c4)c(Oc4cnc(N)c(Cl)c4)c3)CC2)=C(c2ccc(Cl)cc2)C1` [Example 330, 2-[(6-amino-5-chloropyridin-3-yl)oxy]-4-(4-{[2-(4-chlorophenyl)-4,4-dimethylcyclohex-1-en-1-yl]methyl}piperazin-1-yl)-N-({4-[(4-fluorotetrahydro-2H-pyran-4-yl)methoxy]-3-nitrophenyl}sulfonyl)benzamide] was less than 0.01 nM. On the same count and under the same terms, the same measure for `CC1(C)CCC(CN2CCN(c3ccc(C(=O)NS(=O)(=O)c4ccc(NC5CCN(C6CCOCC6)CC5)c([N+](=O)[O-])c4)c(Oc4ccnc(N)c4)c3)CC2)=C(c2ccc(Cl)cc2)C1` [Example 273, 2-[(2-aminopyridin-4-yl)oxy]-4-(4-{[2-(4-chlorophenyl)-4,4-dimethylcyclohex-1-en-1-yl]methyl}piperazin-1-yl)-N-({3-nitro-4-[(1-tetrahydro-2H-pyran-4-ylpiperidin-4-yl)amino]phenyl}sulfonyl)benzamide]: 0.516 nM.

What is called Ki is the dissociation constant of the complex between target and ligand, obtained from inhibition or displacement.
